{
  "source": "patent US20260191863A1",
  "about": "“PYRROLOPYRIMIDINE COMPOSITIONS FOR TREATMENT OF ITK MEDIATED CONDITIONS” (ACLARIS THERAPEUTICS, INC., priority 2022, published 2026)",
  "key": {"[1]": {"test_system": "JAK3 (pSTAT5, lymph)", "experiment": "SAD ex vivo PD: IL2 stimulated pSTAT5 in lymphocytes", "details": "Homo sapiens, Lymphocyte; SAD study; read-out: Clinical EC50", "source_text": "(§1) Secondary Endpoints—Compound I plasma concentrations. Mean change from baseline in ex vivo stimulated pSTAT5 and pSTAT1 (signal transducer and activator of transcription); and in ex vivo stimulated IFNγ mRNA (interferon gamma messenger ribonucleic acid).\nSummary of SAD data: FIGS. 4-8 and 9-13 show the SAD dose response, SAD exposure response, and SAD calculated response at Cmax by dose respectively for ITK (IL2 mRNA), ITK (IFNγ mRNA), JAK3 (pSTAT5, lymph), JAK3 (pSTAT5, CD3′ T), and ITK & JAK (IFNγ protein). Clinical and pre-clinical IC50 data for ITK (IL2 mRNA), ITK (IFNγ mRNA), JAK3 (pSTAT5, lymph), JAK3 (pSTAT5, CD3^+ T), and ITK & JAK (IFNγ protein) from the SAD study is shown in table 4."}, "[2]": {"test_system": "ankle diameter swelling (Antigen Induced Arthritis)", "experiment": "Rat Antigen Induced Arthritis (AIA) model, ankle diameter swelling", "type": "in vivo", "details": "PO from day 6", "source_text": "The study evaluated the rat AIA kinetics of ankle diameter swelling. Therapeutic model with PO dosing beginning on day 6."}, "[3]": {"test_system": "ITK and JAK3", "experiment": "SAD exploratory PD, all biomarker readouts", "type": "in vivo, human", "procedure": "as §1\nResults: Sixty-three subjects completed the SAD study. […] Peak concentrations were reached within 2 hours after dosing."}, "[4]": {"test_system": "ITK (IL2 mRNA)", "experiment": "Pre-clinical human whole blood αCD3/28/IL-2 mRNA (2 hr)", "type": "cell-based"}, "[5]": {"experiment": "Phase 1 MAD study: safety and tolerability", "type": "in vivo, human", "details": "for AE of Special Interest (events) / AEs (events) / ≥Grade 2 (events): 14 days", "source_text": "Primary Endpoints—Number and percent of adverse events (AEs) and serious adverse events (SAEs); mean change from baseline in laboratory values, vital signs, and electrocardiograms (ECGs).\nOverall Design—This was a randomized, Investigator and participant-blind. Sponsor-unblinded, placebo-controlled study designed to evaluate the safety, tolerability, PK, and PD of Compound I in healthy participants. The study consisted of multiple cohorts assessing ascending doses of Compound I.\nApproximately 60 participants were enrolled into 5 cohorts. At each dose level/cohort, a total of 10 participants were randomized to receive 2 weeks of oral doses of Compound I (n=8) or placebo (n=2). In Cohort 3, 20 participants were randomized to receive multiple oral doses of Compound I QD (n=8), Compound I TID (n=8), placebo QD (n=2), or placebo TID (n=2).\nThe study started with a planned dose of 5 mg twice daily (BID). Escalation to the next higher cohort was dependent on safety and PK data from all participants in the previous cohorts and was based on data from at least 6 participants up to at least 48 hours after the last dose. In no instance did the dose escalation steps exceed 3-fold the prior dose level."}},
  "note": "“And” between values parts separate entries of the source, which are not always exact repeats. Equal entries are not always repeated. Where two headings read alike, the source gives them in different places.",
  "data": [
    {"compound": "C=CC(=O)N1C[C@H](Nc2ncnc3[nH]cc([C@H]4CC4(F)F)c23)CC[C@@H]1C", "note": "[Compound I, 1-((2S,5R)-5-((5-((R)-2,2-difluorocyclopropyl)-7H-pyrrolo[2,3-d]pyrimidin-4-yl)amino)-2-methylpiperidin-1-yl)prop-2-en-1-one]", "values": [
      {"measurement": "EC50", "setting": "[1]", "value": 137, "unit": "nM"},
      {"measurement": "Ankle diameter swelling, comparison of regimens", "setting": "[2]; rat AIA, 5 mpk BID, 15 BID and 30 QD", "value": "No significant difference"},
      {"measurement": "BID vs QD dosing efficacy", "setting": "[2]; rat arthritis model", "value": "BID dosing is more effective than QD dosing"},
      {"measurement": "Modulation of all PD biomarker readouts", "setting": "[3]", "value": "dose- and time-dependent modulation"},
      {"measurement": "PD markers of ITK (αCD3/αCD28 induced IL2 and IFNγ mRNA) and JAK3 (IL2 induced pSTAT5) activation", "setting": "[3]", "value": "dose-dependently inhibited"},
      {"measurement": "Inhibition of biomarker readouts", "setting": "[3]; 2 hours post treatment, doses of 15 mg to 80 mg", "value": "Near-complete inhibition"},
      {"measurement": "Potency relative to Ritlecitinib, αCD3/28/IL-2 mRNA (2 hr)", "setting": "[4]", "value": "(35 fold*)"},
      {"measurement": "IC50", "setting": "[4]; Homo sapiens", "value": "0.0077 µg/mL and 21.3 nM"},
      {"measurement": "EC50", "setting": "[4]; Homo sapiens, 2 h, read-out: Human Whole Blood EC50, αCD3/28/IL-2 mRNA (2 hr)", "value": 21, "unit": "nM"},
      {"measurement": "EC50", "setting": "[4]; Homo sapiens, read-out: Pre-clinical EC50", "value": "21.3 ± 4.3", "unit": "nM"},
      {"measurement": "Deaths, serious AEs, discontinuations due to AEs", "setting": "[5]; MAD", "value": "no deaths, serious AEs, or discontinuations due to AEs"},
      {"measurement": "Safety and tolerability conclusion", "setting": "[5]; MAD", "value": "safe and well tolerated"},
      {"measurement": "Notable events: single episode of transient diarrhea", "setting": "[5]; MAD 5 mg BID", "value": 2, "unit": "subjects"},
      {"measurement": "Notable events: single dermatomal zoster rash 1 week after dosing ended", "setting": "[5]; MAD 40 mg BID", "value": 1, "unit": "subject"},
      {"measurement": "AE of Special Interest (events)", "setting": "[5]; MAD cohort 5 mg BID", "value": 3},
      {"measurement": "AEs (events)", "setting": "[5]; MAD cohort 5 mg BID", "value": 9},
      {"measurement": "≥Grade 2 (events)", "setting": "[5]; MAD cohort 5 mg BID", "value": 1},
      {"measurement": "AE of Special Interest (events)", "setting": "[5]; MAD cohort 10 mg TID", "value": 0},
      {"measurement": "AEs (events)", "setting": "[5]; MAD cohort 10 mg TID", "value": 3},
      {"measurement": "≥Grade 2 (events)", "setting": "[5]; MAD cohort 10 mg TID", "value": 0},
      {"measurement": "AE of Special Interest (events)", "setting": "[5]; MAD cohort 15 mg BID", "value": 0},
      {"measurement": "AEs (events)", "setting": "[5]; MAD cohort 15 mg BID", "value": 0},
      {"measurement": "≥Grade 2 (events)", "setting": "[5]; MAD cohort 15 mg BID", "value": 0},
      {"measurement": "AE of Special Interest (events)", "setting": "[5]; MAD cohort 25 mg BID", "value": 1},
      {"measurement": "AEs (events)", "setting": "[5]; MAD cohort 25 mg BID", "value": 4},
      {"measurement": "≥Grade 2 (events)", "setting": "[5]; MAD cohort 25 mg BID", "value": 0},
      {"measurement": "AE of Special Interest (events)", "setting": "[5]; MAD cohort 30 mg QD", "value": 0},
      {"measurement": "AEs (events)", "setting": "[5]; MAD cohort 30 mg QD", "value": 3},
      {"measurement": "≥Grade 2 (events)", "setting": "[5]; MAD cohort 30 mg QD", "value": 0},
      {"measurement": "AE of Special Interest (events)", "setting": "[5]; MAD cohort 40 mg BID", "value": 1},
      {"measurement": "AEs (events)", "setting": "[5]; MAD cohort 40 mg BID", "value": 4},
      {"measurement": "≥Grade 2 (events)", "setting": "[5]; MAD cohort 40 mg BID", "value": 1},
      {"measurement": "Safety and tolerability", "setting": "[5]; MAD, up to 2 weeks administration in HV", "value": "safe and tolerable"}
    ]}
  ]
}
